Experimental findings from publication PMC3549917, “Characterization of two antimicrobial peptides produced by a halotolerant Bacillus subtilis strain SK.DU.4 isolated from a rhizosphere soil sample” (AMB Express, 2013) are described below.

Where no end group is shown, it is not given here.

Holding throughout (assay): Well diffusion assay, inhibition spectrum
What all share (type): cell-based
On the technique in general: A growth-free zone around the sample is the usual read-out of agar diffusion tests.

For one assay, the system named is B. subtilis MTCC121. The following applies: Polymyxin B at 300 U. How it is done:
(§1) The bacteriocin activity was determined by well diffusion assay. The strain was grown for 24 h in 200 ml nutrient broth (NB, Himedia) using 500 ml flask and subsequently cells were removed by centrifugation (8000 rpm for 20 min, 4°C). The supernatant obtained was filtered by using 0.22 μm filter (Millipore), diluted by two fold and used to test the activity as mentioned earlier (Singh et al. [2012]). The antimicrobial peptide production was also tested by growing the strain in minimal medium. To examine the antimicrobial activity, S. aureus cells were processed for scanning electron micrograph (SEM) as described by earlier (Singh et al. [2012]). Growth curve was prepared to examine the bacteriocin production along with the growth of strain SK.DU4.
(§2) Although the antimicrobial peptides were produced in NB for large scale preparation, the influence of different carbon and nitrogen sources on peptides production was tested using minimal medium. […] The optimum pH for the production of antimicrobial peptides was 7.2 and there was no significant change in pH was observed during the production of antimicrobial peptides. The bacteriocin-like peptide was extracted from CFB by hydrophobic interaction chromatography using Diaion HP-20 beads and purified by a combination of chromatography techniques as described previously (Singh et al. [2012]). Subsequently, the purified peptide was tested for antimicrobial activity against an array of Gram-positive and Gram-negative bacteria, yeasts and fungi strains using well diffusion assays.

A further assay concerns L. monocytogenes MTCC839. Conditions: 100 μl of the lowest dilution inhibiting test strain, similar results in three individual experiments. As for the experimental part:
as §1, §2

Another assay has as its system M. luteus MTCC106. Conditions: 100 μl of the lowest dilution inhibiting test strain, similar results in three individual experiments. How it is done: as §1, §2
A further assay has as its system S. mutans MTCC497. Conditions: lipopeptide combined with bacteriocin-like peptide. As for the experimental part:
as §1, §2

On to “DYNQPNS (also: lariat or depsi (positions not given here)) [Lipopeptide, cyclic iturin-like lipopeptide (m/z 1056 Da), β-hydroxy fatty acid linked to Ser of heptapeptide, from strain SK.DU.4]”, for which the Inhibition activity entry in the assay with B. subtilis MTCC121 is recorded as “inhibited growth”. For the same substance, the inhibition zone with L. monocytogenes MTCC839 and in the assay on M. luteus MTCC106 was 11 mm each time. Besides, the “growth inhibition in combination with bacteriocin-like peptide” value with S. mutans MTCC497 was “inhibited the growth”.
